From a melting point compilation (Tetko et al.; mined from patent text by program, amines drawn as free bases though some values may be those of a salt)

| SMILES | melting point |
| --- | --- |
| CC(=O)OC1CSC(Oc2ccc(-c3ccc(F)nc3)nc2)C(OC(C)=O)C1OC(C)=O (stereo not drawn) | 185 °C |
| COc1ccccc1-n1c(=O)[nH]c2c(C(N)=O)nc(N[C@@H]3CCNC3)nc21 | > 400 °C |
| CCC(CC)c1ccc(Cl)c2nc3n(c12)CCCCN3c1cc(C)cc2c1ncn2C | 259 to 260 °C |
| CCNc1nc(C(F)(F)F)nc(NCC)c1[N+](=O)[O-] | 60 to 65 °C |
| CCCCCS(=O)(=O)NC(=O)C=Cc1ccc(OCCCC#N)cc1Oc1ncc(C(F)(F)F)cc1Cl | 165 to 166 °C |
| O=C1c2ccccc2C(=O)N1CC(=O)N1c2ccccc2N(Cc2ccccc2)C(=O)[C@H]2CCCC[C@H]21 (relative stereo) | 241 to 242 °C |
| COC(=O)CCC(C)C1CCC2C3CCC4CC(N=[N+]=[N-])CCC4(C)C3CC(=O)C12C (stereo not drawn) | 153 °C |
| CS(=O)(=O)c1ccc(-n2nc(C(F)(F)F)cc2-c2ccc([N+](=O)[O-])cc2)cc1 | 203 to 205 °C |
| O=C1N=C(N2CCOCC2)SC1Cc1cccc(-c2ccc(O)c(C3CCCCC3)c2)c1 (stereo not drawn) | 100 to 108 °C |
| N#CC(Cc1ccco1)(Cn1cncn1)c1ccc(Cl)cc1 (stereo not drawn) | 112 to 114 °C |
| CN1CCN(c2cccc3ccc(Nc4ccc([N+](=O)[O-])cn4)cc23)CC1 | 121 to 125 °C |
| CS(=O)(=O)c1ccc(/C(=C\C2CCCCCC2)C(=O)Nc2nccs2)cc1 | 163 to 165 °C |
| COc1ccc(CNc2c(-c3cc(Cl)ccc3O)c3cc(C(F)(F)F)ccc3[nH]c2=O)cc1 | 103 to 106 °C |
| CC[C@H](C)[C@H](OCc1cccc(F)c1F)[C@H]1[C@H]([N+](=O)[O-])[C@H](c2ccccc2)N[C@@H]1C(=O)NCC(=O)O | 137 to 138 °C |
| CS(=O)(=O)Nc1ccc(OCCBr)c(Cl)c1 | 96 to 98 °C |
| COc1cc(CCBr)cc2c1OCO2 | 78 to 79 °C |
| O=C(CCCCCOc1ccc(-c2ccccc2)cc1)NO | 151 to 152 °C |
| O=S(=O)(NCC1CCN(C[C@H]2COc3ccc(Cl)cc3O2)CC1)c1ccc(Cl)cc1 | 152 to 154 °C |
| C=CCOc1cc(N2C(=O)c3ccccc3C2=O)c(F)cc1Cl | 148 to 150 °C |
| COC(=O)c1ccc(Oc2c(-c3ccc(OCc4ccccc4)cc3)c(C(F)(F)F)cc3ccccc23)cc1 | 131 to 132 °C |
| O=C1NCc2c1cc1ccc3c(c1c2-c1ccc(OCc2ccccc2)cc1)OCO3 | 257 to 260 °C |
| COc1cccc(Oc2c(NS(=O)(=O)c3ccc(C(C)(C)C)cc3)ncnc2OCCCO)c1 | 113 to 114 °C |

| SMILES | melting point |
| --- | --- |
| O=C(NC1C(=O)N(CC23CC4CC(CC(C4)C2)C3)c2ccccc2N(c2ccccc2)C1=O)Oc1ccccc1 (stereo not drawn) | 205 to 207 °C |
| CC(C)(C)C(NC(=O)c1cccc(-c2ccccc2)c1)Nc1c(Nc2cccnc2)c(=O)c1=O (stereo not drawn) | 240 to 241 °C |
| CS(=O)(=O)Nc1ccc(N2CCN(c3cnccc3N)CC2)cc1 | 246 to 248 °C |
| N#CCCNC(=O)c1cccc(-c2cccc(Oc3ccc4c(c3)CCC4)n2)c1 | 122 to 123 °C |
| C=C(C(=O)c1ccc(OC)c(Cl)c1Cl)C1CCCC1 | 59 to 63 °C |
| O=C1CC(Cc2ccc(Cl)cc2Cl)CN1 (stereo not drawn) | 85 to 86 °C |
| FC(F)(F)c1cc(Cl)c(-n2cccn2)c(Cl)c1 | 83 to 85 °C |
| CC[C@H](C)[C@H](NC(=O)c1ccc(C)cc1)NC(=S)Nc1cccnc1 | 102 to 104 °C |
| CCCCCCCCCCCCCCCCCCCc1cccc(N)c1 | 50 to 51 °C |
| CCOC(=O)/C(=N\OC1CCCCCCC1)c1csc(N)n1 | 117 to 118 °C |
| COc1cc(Nc2c(C#N)cnc3cc(/C=C/CCN4CCN(C)CC4)c(OC)cc23)c(Cl)cc1Cl | 142 to 143 °C |
| NC(=O)c1ccc(C2CCCCCC2)c(Cl)c1 | 152 to 155 °C |
| OCC1OC(Oc2ccsc2Cc2ccc(OC(F)(F)F)cc2)C(O)C(O)C1O (stereo not drawn) | 144 to 145 °C |
| [N-]=[N+]=N[C@@H](Cc1ccccc1)[C@H](O)CO | 83 to 84 °C |
| CCOc1nn(Cc2ccc(OCc3coc(-c4ccccc4)n3)cc2)cc1CCC(=O)O | 135 to 136 °C |
| CC(SCC(=O)O)c1ccc(-c2ccccc2F)cc1 (stereo not drawn) | 125 to 127 °C |
| COc1ccc(C(=O)NCCc2ccc(-c3ccc(O)cc3)cc2)c(OC)c1 | 190 °C |
| CCc1cc(S(=O)(=O)N(C)C)ccc1-c1cnc2[nH]c(CCc3cc(OC)ccn3)nc2c1 | 179 to 180 °C |
| Nc1c(Cl)cc(C(O)CNCCCCCCOCCc2ccc(N3CCOCC3)cc2)cc1Cl (stereo not drawn) | 102 to 103 °C |
| OCc1nccc(N2CCCCC2)c1Br | 51 to 53 °C |
| Cc1cc(-c2cnn3c(C(F)F)cc(-c4ccc(C(F)(F)F)cc4)nc23)ccn1 | 213 °C |

Other lines, results leading:

| melting point | SMILES |
| --- | --- |
| 98 to 100 °C | COC(=O)C1Cc2cc(-c3ccc(C(C)O)cc3)ccc2O1 (stereo not drawn) |
| 165 to 167 °C | CCC1(C)Cc2ccc(C(C)C(=O)O)cc2C1 (stereo not drawn) |
| 164 to 168 °C | Cc1c(Cl)ccc(S(C)(=O)=O)c1C=NO |
| 57 to 58 °C | Cc1sc(C(=O)OCc2ccccc2)cc1[N+](=O)[O-] |
| 214 to 216 °C | CCOC(=O)N1CCc2cc(S(=O)(=O)n3cc(-c4ccccc4)[nH]c3=O)ccc21 |
| 223 to 225 °C | CON(C)C(=O)c1cc(S(N)(=O)=O)sc1Cl |
| 214 to 216 °C | O=C(O)Cn1c(-c2cccc(Cl)c2)nc2cccnc21 |
| 100 to 101 °C | COC(=O)c1ccc(Cn2c(C)nc3ccccc32)cc1 |
| 228 °C | Cc1ccc(Nn2c(-c3ccccc3)c(C)[nH]c2=S)cc1C |
| 60 to 62 °C | CC#CCOc1ccc(S(=O)(=O)N(C)C(C(=O)NO)c2ccc(OCCCNC(=O)OCC)cc2)cc1 (stereo not drawn) |
| 305 to 307 °C | Cc1nc2cc(N)ccc2c(=O)n1C1CCC(=O)NC1=O (stereo not drawn) |
| 195 to 197 °C | CS(=O)(=O)Oc1ccc(-c2cc3ccc(OS(C)(=O)=O)cc3s2)cc1 |
| 173 to 174 °C | Cc1nc(-n2cc(Cl)ccc2=O)sc1C(=O)NCc1ccccc1 |
| 255 °C | O=C1NC(=O)C(=Cc2ccc3c(c2)CCC(Cc2ccccc2)O3)S1 (single isomer, unassigned; (-)) |
| 122 °C | COc1ccc2oc(Cc3ccccc3OC)c(CC#N)c2c1 |
| 146 to 148 °C | CC(C)c1nn(-c2ccc(C(F)(F)F)cn2)cc1CCCOc1c(CC(=O)O)cnn1C |
| 125 to 126 °C | COc1cc(OC)c(-c2cccs2)cc1C=O |
| 162 to 164 °C | Cc1cc(=O)oc2cc(N(C)C(=O)C(=O)O)ccc12 |
| 190 to 193 °C | Nc1ccc2c(=O)n3c(nc2c1)C(=Cc1ccccc1)CCC3 |
| 230 to 233 °C | CCNC(=O)Nc1nc2cc(-c3ccc(OC)nc3)ccn2n1 |
| 156 to 161 °C | COc1ccc(C2(c3ccc(N(C)C)cc3)OC(=O)c3ccc(N(C)C)cc32)cc1 (stereo not drawn) |
| > 280 °C | COc1cc(-n2cc(C(=O)O)c(=O)c3cc(F)c(F)c(Cl)c32)ccc1F |
| 125 °C | CCCCNCC(=O)Nc1ccc2c(c1)C(=O)c1cc(NC(=O)CNCCCC)ccc1C2=O |
| 208 to 210 °C | CCNCC1CCN(c2c(F)cc3c(=O)c(C(=O)O)cn(CC)c3c2F)C1 (stereo not drawn) |
| 269 to 270 °C | Nc1ccccc1C(=O)NC1CCN(CCCOc2ccc3c4c(c(=O)oc3c2)CCC4)CC1 |
